# Like-named read-outs stand apart in the source and are kept apart here.
# How the values were obtained:
# BT/Lap^R1.0 = test: Cell survival (ATPlite/CellTiter-Glo luminescence), alone and combined with lapatinib; format: cell-based, human; conditions: BT/Lap^R1.0 cells; for Survival rate %: 72 hours
# Description: (§1) Cells plating: a 100 mm culture dish with overgrown adherent cells was digested with 1 ml 0.25% trypsin (GIBCO) at 37° C. for 5 min, and the reaction was terminated with 2 ml culture medium (containing 10% FBS, GIBCO). The cells were scattered and collected, after counting, diluted to 1×10^5 cells/ml, and seeded into a 96-well plate at 50 μl/well, 5000 cells/well, excluding the peripheral circle of wells to which no cell was added, but PBS was added, 60 wells in total, and then incubated at 37° C. for 24 hours for adhering.
# (§2) Test after incubation at 37° C. for 72 hours: […] of ATPlite kit substrate solution was added in each well, and vibrated for 3 min, followed by placing aside in darkness for 10 min, and then supernatant 100 μl/well was taken and placed on aluminescence test plate; the luminescence test plate that has been fully incubated was placed in a luminescence test instrument, to read luminescence value.
# (§3) (1) Cell survival rate (%)=Experimental group RLU/control group RLU×100%. The experimental data were subjected to data analysis and processing by utilizing GraphPad software.
# (§4) (2) The nature of interaction between two drugs was evaluated by using coefficient of drug interaction (CDI), CDI being calculated as follows: CDI=AB/(A×B)×100%. As calculated according to the number of viable cells (luminescence value), when CDI<1, the nature of interaction between two drugs is synergism; when CDI<0.7, the synergism is very significant; when CDI=1, the nature of interaction between two drugs is addition; when CDI>1, the nature of interaction between two drugs is antagonism.
# BT474 = test: as above; format: cell-based, human; conditions: BT474 cells; for Survival rate %: 72 hours
# Description: as §1, §2, §3, §4
# MDA-MB-361 = test: as above; format: cell-based, human; conditions: MDA-MB-361 cells, 72 hours
# Description: as §1, §2, §3, §4
# MDA-MB-453 = test: as above; format: cell-based, human; conditions: MDA-MB-453 cells; for Survival rate %: 72 hours
# Description: as §1, §2, §3, §4
# SK-BR3 = test: as above; format: cell-based, human; conditions: SK-BR3 cells; for Survival rate %: 72 hours
# Description: as §1, §2, §3, §4
# SK/Lap^R1.0 = test: as above; format: cell-based, human; conditions: SK/Lap^R1.0 cells, 72 hours
# Description: as §1, §2, §3, §4
# Hsp70 [1] = target: T1, Hsp70 (Homo sapiens, UniProt P0DMV8); test: Measurement of affinity for Hsp70 (BIACORE T100, CM5 chip); format: binding; conditions: for effect in preliminary screening of binding to Hsp70, compared with positive compound VER-155008: at 10 μm; for Kd: steady state model, 25° C., PBS containing 5% DMSO
# T1 construct: purchased Enzo Life Sciences ADI-ESP-550-D
# T1 sequence (P0DMV8 whole entry): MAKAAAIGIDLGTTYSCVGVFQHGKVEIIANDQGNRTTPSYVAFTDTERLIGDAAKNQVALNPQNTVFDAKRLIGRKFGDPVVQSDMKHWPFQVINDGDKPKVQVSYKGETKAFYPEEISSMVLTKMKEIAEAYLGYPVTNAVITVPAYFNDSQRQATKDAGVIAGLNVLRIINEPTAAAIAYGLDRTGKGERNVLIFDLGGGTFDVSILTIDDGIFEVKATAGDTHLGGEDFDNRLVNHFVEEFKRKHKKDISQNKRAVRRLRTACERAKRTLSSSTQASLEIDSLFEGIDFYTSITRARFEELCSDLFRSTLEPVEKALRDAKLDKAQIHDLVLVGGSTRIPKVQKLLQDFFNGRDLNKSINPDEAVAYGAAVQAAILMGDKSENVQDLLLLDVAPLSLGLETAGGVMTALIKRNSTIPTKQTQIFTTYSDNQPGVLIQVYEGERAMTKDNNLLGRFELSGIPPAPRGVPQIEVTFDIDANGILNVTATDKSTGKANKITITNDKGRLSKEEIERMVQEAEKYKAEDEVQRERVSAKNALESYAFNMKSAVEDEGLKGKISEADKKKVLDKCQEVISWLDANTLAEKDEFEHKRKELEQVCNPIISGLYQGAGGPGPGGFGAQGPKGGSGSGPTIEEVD
# Description: 1. Instrument: BIACORE T100 biomolecular interaction analyzer (GE, USA)
# 2. Reagents: PBS Buffer (×10), P20, CM5 chip (GE, USA), Hsp70 (human, ADI-ESP-550-D), manufactured by Enzo Life Sciences.
# 30 mM mother liquor of compound was formulated with DMSO, which was diluted to 2 mM application solution with DMSO before use. 5 μl of the application solution was taken and diluted with 95 μl 1.05×PBS to 100 μM, and then diluted in turn with PBS containing 5% DMSO to 10, 3, 1, 0.3, 0.1, 0.03, 0.01, 0.003 μM, […]. PBS containing 5% DMSO was used as solvent control.
# Hsp70 protein was diluted with 10 mmol/L sodium acetate buffer solution (pH 5.0) to 30 μg/ml, and coupled directly on a hydrophilic carboxylmethyl dextran matrix sensor chip M5 through normalized primary amine coupling reaction, RU=11209, and then the chip was balanced for 1-2 h with PBS Buffer at […].
# At a flow rate of […], with PBS containing 5% DMSO as mobile phase, at 25° C., the compound was introduced in the sequence of 0.003, 0.01, 0.03, 0.1, 0.3, 1, 3 and 10 μM, with binding time 90 seconds, and dissociation time 120 seconds.
# According to binding characteristics between the compounds and protein, the binding constant (equilibrium dissociation constant KD) between drugs and protein was calculated by selecting steady state model with the formula: Conc*Rmax/[conc+KD]+offset.
# At a flow rate of […], PBS containing 5% DMSO as mobile phase, at 25° C., the compound was injected in the order of 0.003, 0.01, 0.03, 0.1, 0.3, 1, 3, and 10 μM, with the binding time of 90 sec, and the dissociation time of 120 sec.
# Hsp70 [2] = target: T1, Hsp70; conditions: literature value (Cancer Chemother Pharmacol 2010, 66: 535-545); read-out: affinity for Hsp70, literature value; cited from earlier work
# [3] = Example 30 10 μM alone (Lapatinib 0)
# [4] = Example 30 10 μM combined with Lapatinib 1 μM
# [5] = Example 30 10 μM with Lapatinib 1 μM, CDI<1 synergism
# [6] = Lapatinib 1 μM alone (Example 30 0 μM)
smiles,measurement,setting,value
"CN(C(=O)Cn1ccnc1)C1CCN(c2nccc(Cl)n2)CC1 [Example 30, N-methyl-N-[1-(4-chloropyrimidin-2-yl)piperidin-4-yl]-[2-(imidazol-1-yl)]acetamide]",Survival rate %,BT/Lap^R1.0; [3],92.5%
same,Survival rate %,BT/Lap^R1.0; [4],50.6%
same,CDI (coefficient of drug interaction),BT/Lap^R1.0; [5],1.03
same,Survival rate %,BT474; [3],93.5%
same,Survival rate %,BT474; [4],24.8%
same,CDI (coefficient of drug interaction),BT474; [5],1.05
same,Survival rate %,MDA-MB-361; [3],104.1%
same,Survival rate %,MDA-MB-361; [4],69.1%
same,Survival rate %,MDA-MB-453; [3],82.8%
same,Survival rate %,MDA-MB-453; [4],36.6%
same,CDI (coefficient of drug interaction),MDA-MB-453; [5],1.26
same,Survival rate %,SK-BR3; [3],83.8%
same,Survival rate %,SK-BR3; [4],24.9%
same,CDI (coefficient of drug interaction),SK-BR3; [5],1.13
same,Survival rate %,SK/Lap^R1.0; [3],94.2%
same,Survival rate %,SK/Lap^R1.0; [4],56.9%
same,"effect in preliminary screening of binding to Hsp70, compared with positive compound VER-155008",Hsp70 [1],equivalent to that of positive compound VER-155008
same,Kd,Hsp70 [1],225 nM
"CSc1nccc(N2CCC(N(C)C(=O)O[C@H]3CCN(S(=O)(=O)c4cccs4)C3)CC2)n1 [Example 13, (S)-[1-(2-thienylsulfonyl)pyrrolidin-3-yl] N-methyl-N-[1-(2-methylthiopyrimidin-4-yl)piperidin-4-yl]carbamate]","effect in preliminary screening of binding to Hsp70, compared with positive compound VER-155008",Hsp70 [1],equivalent to that of positive compound VER-155008
same,Kd,Hsp70 [1],520 nM
"CN(C(=O)OC(C)(C)C)C1CCN(c2cc(Cl)ncn2)CC1 [Example 3, t-butyl N-methyl-N-[1-(6-chloropyrimidin-4-yl)piperidin-4-yl]carbamate]","effect in preliminary screening of binding to Hsp70, compared with positive compound VER-155008",Hsp70 [1],equivalent to that of positive compound VER-155008
same,Kd,Hsp70 [1],525 nM
"CSc1nccc(N2CCC(N(C)C(=O)OC(C)(C)C)CC2)n1 [Example 6, t-butyl N-methyl-N-[1-(2-methylthiopyrimidin-4-yl)piperidin-4-yl]carbamate]","effect in preliminary screening of binding to Hsp70, compared with positive compound VER-155008",Hsp70 [1],equivalent to that of positive compound VER-155008
same,Kd,Hsp70 [1],12700 nM
"COc1ccnc(N2CCC(N(C)C(=O)Cn3cncn3)CC2)n1 [Example 42, N-methyl-N-[1-(4-methoxypyrimidin-2-yl)piperidin-4-yl]-2-(1H-1,2,4-triazol-1-yl) acetamide]","effect in preliminary screening of binding to Hsp70, compared with positive compound VER-155008",Hsp70 [1],equivalent to that of positive compound VER-155008
same,Kd,Hsp70 [1],434 nM
"CN(C(=O)OC(C)(C)C)C1CCN(c2ccnc(Cl)n2)CC1 [Example 2, t-butyl N-methyl-N-[1-(2-chloropyrimidin-4-yl)piperidin-4-yl]carbamate]","effect in preliminary screening of binding to Hsp70, compared with positive compound VER-155008",Hsp70 [1],equivalent to that of positive compound VER-155008
same,Kd,Hsp70 [1],247 nM
"COc1nccc(N2CCC(N(C)C(=O)OC(C)(C)C)CC2)n1 [Example 5, t-butyl N-methyl-N-[1-(2-methoxypyrimidin-4-yl)piperidin-4-yl]carbamate]","effect in preliminary screening of binding to Hsp70, compared with positive compound VER-155008",Hsp70 [1],equivalent to that of positive compound VER-155008
"CN(C(=O)OC(C)(C)C)C1CCN(c2nccc(Cl)n2)CC1 [Example 1, t-butyl N-methyl-N-[1-(4-chloropyrimidin-2-yl)piperidin-4-yl]carbamate]","effect in preliminary screening of binding to Hsp70, compared with positive compound VER-155008",Hsp70 [1],equivalent to that of positive compound VER-155008
same,Kd,Hsp70 [1],2190 nM
"CS(=O)(=O)CCNCc1ccc(-c2ccc3ncnc(Nc4ccc(OCc5cccc(F)c5)c(Cl)c4)c3c2)o1 [Lapatinib, reference compound]",Survival rate %,BT/Lap^R1.0; [6],53.0%
same,Survival rate %,BT474; [6],25.1%
same,Survival rate %,MDA-MB-361; [6],70.4%
same,Survival rate %,SK-BR3; [6],26.3%
same,Survival rate %,SK/Lap^R1.0; [6],92.7%
N#Cc1ccc(COC[C@H]2O[C@@H](n3c(NCc4ccc(Cl)c(Cl)c4)nc4c(N)ncnc43)[C@H](O)[C@@H]2O)cc1 [VER-155008],Kd,Hsp70 [2],300 nM

# — patent US10301279B2, “Piperidine carboxamide compound, preparation method, and use thereof” (Institute of Pharmacology and Toxicology Academy of …, priority 2013, dated 2019)
